Reference: patent US8772307B2, “Substituted spiro compounds and their use for producing pain-relief medicaments” (Gruenenthal GmbH, priority 2005, dated 2014)

Legend:
vanilloid receptor (VR1) = target: T1, vanilloid receptor (VR1) (Homo sapiens, UniProt Q8NER1); assay: Functional testing on vanilloid receptor (VR1): FLIPR Ca2+ inflow assay in CHO K1 cells stably transfected with the VR1 gene; assay type: cell-based; conditions: for inhibition at 10 µM: CHO-K1, inhibition compared to 10 μM CP (capsaicin); for activation at 10 µM: CHO-K1, stimulation compared to 10 μM CP (capsaicin)
T1 construct: expressed in transfected cells; host or cells: CHO K1 cells (ECACC), stably transfected
T1 sequence (Q8NER1 whole entry): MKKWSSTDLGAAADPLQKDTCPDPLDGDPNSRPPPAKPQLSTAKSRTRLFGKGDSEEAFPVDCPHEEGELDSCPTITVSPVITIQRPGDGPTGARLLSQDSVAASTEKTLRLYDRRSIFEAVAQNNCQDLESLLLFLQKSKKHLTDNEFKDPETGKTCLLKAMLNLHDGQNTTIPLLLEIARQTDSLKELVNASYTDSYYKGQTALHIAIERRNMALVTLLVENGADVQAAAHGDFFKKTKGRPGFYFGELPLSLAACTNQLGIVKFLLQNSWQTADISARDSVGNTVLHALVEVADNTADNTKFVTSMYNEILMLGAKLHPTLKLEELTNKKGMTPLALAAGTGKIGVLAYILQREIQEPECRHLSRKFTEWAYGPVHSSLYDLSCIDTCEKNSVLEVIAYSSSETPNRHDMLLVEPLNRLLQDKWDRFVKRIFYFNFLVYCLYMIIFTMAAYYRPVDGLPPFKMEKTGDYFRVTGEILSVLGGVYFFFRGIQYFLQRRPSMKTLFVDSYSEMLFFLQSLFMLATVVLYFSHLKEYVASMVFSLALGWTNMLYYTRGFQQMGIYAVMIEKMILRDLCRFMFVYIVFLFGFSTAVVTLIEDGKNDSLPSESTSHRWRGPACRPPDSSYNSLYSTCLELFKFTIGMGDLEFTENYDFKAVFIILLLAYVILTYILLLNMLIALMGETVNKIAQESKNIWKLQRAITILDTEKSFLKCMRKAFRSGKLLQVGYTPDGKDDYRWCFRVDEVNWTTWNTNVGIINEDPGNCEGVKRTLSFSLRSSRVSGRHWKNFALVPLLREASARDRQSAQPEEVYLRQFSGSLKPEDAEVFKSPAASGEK
Source text: II. Functional Testing Carried Out on the Vanilloid Receptor (VR1)
The agonistic or antagonistic effect of the substances to be tested can also be determined on the vanilloid receptor (VR1) using the following assay. According to this assay, the Ca^2+ inflow is quantified through the channel using a Ca^2+-sensitive dye (type Fluo-4, Molecular Probes Europe BV, Leiden, Netherlands) in a fluorescent imaging plate reader (FLIPR, Molecular Devices, Sunnyvale, USA).
Chinese hamster ovary cells (CHO K1 cells, European Collection of Cell Cultures (ECACC) United Kingdom) were stably transfected with the VR1 gene. For functional testing, these cells were plated out on poly-D-lysine-coated black 96 well plates having a clear base (BD Biosciences, Heidelberg, Germany) at a density of 25,000 cells/well. The cells were incubated overnight at 37° C. and 5% CO2 in a culture medium (Ham's F12 nutrient mixture, 10% by volume of FCS (foetal calf serum), 18 μg/ml L-proline). The next day the cells were incubated with Fluo-4 (Fluo-4 2 μM, 0.01% by volume of Pluronic F127, Molecular Probes in HBSS (Hank's buffered saline solution), Gibco Invitrogen GmbH, Karlsruhe, Germany) for 30 minutes at 37° C. Subsequently, the plates were washed 3 times with HBSS buffer and after further incubation for 15 minutes at room temperature used for Ca^2+ measurement in a FLIPR assay. The Ca^2+-dependent fluorescence was measured before and after the addition of the substances to be tested (λex wavelength=488 nm, λem=540 nm). Quantification was carried out by measuring the highest fluorescence intensity (FC, Fluorescence Counts) over time.
The FLIPR protocol consists of 2 substance additions. First the compounds to be tested (10 μM) were pipetted onto the cells and the Ca^2+ inflow was compared with the control (capsaicin 10 μM) (% activation based on the Ca^2+ signal after the addition of 10 μM capsaicin). After 5 minutes' incubation, 100 nM of capsaicin were administered and the Ca^2+ inflow was also determined.
Desensitising agonists and antagonists led to suppression of the Ca^2+ inflow. The % inhibition was calculated compared to the maximum achievable inhibition with 10 μM of capsaicin.

[1] = target: T2, rat-species vanilloid receptor 1 (VR1/TRPV1) (Rattus norvegicus, UniProt O35433); assay: Functional testing on vanilloid receptor 1 (VR1/TRPV1): FLIPR Ca2+ inflow assay in rat dorsal root ganglia cells (% activation / % inhibition vs capsaicin); assay type: cell-based; conditions: for inhibition at 10 µM: inhibition compared to 10 μM CP (capsaicin); for activation at 10 µM: stimulation compared to 10 μM CP (capsaicin); for IC50: capsaicin (CAP) stimulus, average
T2 construct: endogenous in cells; host or cells: primary cells dissociated from rat dorsal root ganglia (DRG)
T2 sequence (O35433 whole entry): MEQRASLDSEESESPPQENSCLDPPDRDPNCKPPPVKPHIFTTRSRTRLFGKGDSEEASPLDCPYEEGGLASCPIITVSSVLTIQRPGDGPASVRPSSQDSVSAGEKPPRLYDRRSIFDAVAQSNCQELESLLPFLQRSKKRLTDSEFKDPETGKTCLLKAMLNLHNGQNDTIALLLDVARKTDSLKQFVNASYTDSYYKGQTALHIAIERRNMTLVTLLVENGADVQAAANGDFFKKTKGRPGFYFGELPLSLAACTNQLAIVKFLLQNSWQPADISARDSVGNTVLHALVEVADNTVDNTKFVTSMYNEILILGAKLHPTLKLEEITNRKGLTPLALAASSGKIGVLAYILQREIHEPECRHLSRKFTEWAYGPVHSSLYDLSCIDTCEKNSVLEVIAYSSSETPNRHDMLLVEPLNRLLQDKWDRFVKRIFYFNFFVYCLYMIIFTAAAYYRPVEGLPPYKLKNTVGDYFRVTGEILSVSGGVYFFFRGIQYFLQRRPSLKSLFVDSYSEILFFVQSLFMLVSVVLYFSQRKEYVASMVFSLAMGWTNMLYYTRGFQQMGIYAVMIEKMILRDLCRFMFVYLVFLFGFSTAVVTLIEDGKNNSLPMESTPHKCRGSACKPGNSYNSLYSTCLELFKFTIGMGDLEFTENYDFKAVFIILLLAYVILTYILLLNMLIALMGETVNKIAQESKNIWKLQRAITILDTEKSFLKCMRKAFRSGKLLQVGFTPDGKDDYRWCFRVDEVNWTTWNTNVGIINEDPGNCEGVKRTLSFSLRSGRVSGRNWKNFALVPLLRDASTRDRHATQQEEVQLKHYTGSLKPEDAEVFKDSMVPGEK
Description: Preference may also be given to substituted spiro compounds according to the invention of general formula I which in a FLIPR assay in a concentration of 10 μM display inhibition of the Ca^2+ ion inflow in dorsal root ganglia of rats of at least 30%, preferably of at least 40%, particularly preferably of at least 50%, most particularly preferably of at least 70%, even more preferably of at least 90%, compared to the maximum achievable inhibition of the Ca^2+ ion inflow with capsaicin in a concentration of 10 μM.
In the FLIPR assay, the Ca^2+ inflow is quantified using a Ca^2+-sensitive dye (type Fluo-4, Molecular Probes Europe BV, Leiden, Netherlands) in a fluorescent imaging plate reader (FLIPR, Molecular Devices, Sunnyvale, USA), as described hereinafter.
I. Functional Testing Carried Out on the Vanilloid Receptor 1 (VR1/TRPV1 Receptor)
The agonistic or antagonistic effect of the substances to be tested can be determined on the rat-species vanilloid receptor 1 (VR1/TRPV1) using the following assay. According to this assay, the Ca^2+ inflow is quantified through the receptor channel using a Ca^2+-sensitive dye (type Fluo-4, Molecular Probes Europe BV, Leiden, Netherlands) in a fluorescent imaging plate reader (FLIPR, Molecular Devices, Sunnyvale, USA).
Complete medium: 50 mL HAMS F12 nutrient mixture (Gibco Invitrogen GmbH, Karlsruhe, Germany) with
10% by volume of FCS (foetal calf serum, Gibco Invitrogen GmbH, Karlsruhe, Germany, […]);
2 mM L-glutamine (Sigma, Munich, Germany);
1% by weight of AA solution (antibiotic/antimyotic solution, PAA, Pasching, Austria)
and 25 ng/ml NGF medium (2.5 S, Gibco Invitrogen GmbH, Karlsruhe, Germany)
Cell culture plate: Poly-D-lysine-coated, black 96 well plates having a clear base (96 well black/clear plate, BD Biosciences, Heidelberg, Germany) were additionally coated with laminin (Gibco Invitrogen GmbH, Karlsruhe, Germany), the laminin being diluted with PBS (Ca—Mg-free PBS, Gibco Invitrogen GmbH, Karlsruhe, Germany) to a concentration of 100 μg/mL. Aliquots having a laminin concentration of 100 μg/mL were removed and stored at −20° C. The aliquots were diluted with PBS in a ratio of 1:10 to 10 μg/mL laminin and in each case 50 μL of the solution were pipetted into a recess in the cell culture plate. The cell culture plates were incubated for at least two hours at 37° C., the excess solution was removed by suction-filtration and the recesses were each washed twice with PBS. The coated cell culture plates were stored with excess PBS which was not removed until just before the feeding of the cells.
Preparation of the Cells:
The vertebral column was removed from decapitated rats and placed immediately into cold HBSS buffer (Hank's buffered saline solution, Gibco Invitrogen GmbH, Karlsruhe, Germany), i.e. buffer located in an ice bath, mixed with 1% by volume (percent by volume) of an AA solution (antibiotic/antimyotic solution, PAA, Pasching, Austria). The vertebral column was cut longitudinally and removed together with fasciae from the vertebral canal. Subsequently, the dorsal root ganglia (DRG) were removed and again stored in cold HBSS buffer mixed with 1% by volume of an AA solution. The DRG, from which all blood remnants and spinal nerves had been removed, were transferred in each case to 500 μL of cold type 2 collagenase (PAA, Pasching, Austria) and incubated for 35 minutes at 37° C. After the addition of 2.5% by volume of trypsin (PAA, Pasching, Austria), incubation was continued for 10 minutes at 37° C. After complete incubation, the enzyme solution was carefully pipetted off and 500 μL of complete medium were added to each of the remaining DRG. The DRG were in each case suspended several times, drawn through cannulae No. 1, No. 12 and No. 16 using a syringe and transferred to a 50 mL Falcon tube which was filled up to 15 mL with complete medium. […]

SMILES	inhibition at 10 µM (vanilloid receptor (VR1)) [%]	activation at 10 µM (vanilloid receptor (VR1)) [%]	inhibition at 10 µM [1] [%]	activation at 10 µM [1] [%]	IC50 [1] [nM]	IC50 (vanilloid receptor (VR1); capsaicin (CAP) stimulus, average) [nM]
CC(C)c1ccc(NC(=O)N2CCC3(CC2)CC(c2ccccc2)=NO3)cc1 [Compound 78, 3-phenyl-1-oxa-2,8-diazaspiro[4.5]dec-2-ene-8-carboxylic acid-(4-isopropylphenyl)amide]	11.8	0.11	95	0.02	–	–
O=C(/C=C/c1ccc(C(F)(F)F)nc1N1CCCCC1)N1CCC2(CC1)CC(c1cccc(Cl)c1)=NO2 [Compound 356, (E)-1-(3-(3-chlorophenyl)-1-oxa-2,8-diazaspiro[4.5]dec-2-en-8-yl)-3-(2-(piperidin-1-yl)-6-(trifluoromethyl)pyridin-3-yl)prop-2-en-1-one]	52	0	88	0	–	–
COc1cccc(C2=NOC3(CCN(C(=O)/C=C/c4ccc(C(F)(F)F)nc4)CC3)C2)c1 [Compound 362, (E)-1-(3-(3-methoxyphenyl)-1-oxa-2,8-diazaspiro[4.5]dec-2-en-8-yl)-3-(6-(trifluoromethyl)pyridin-3-yl)prop-2-en-1-one]	19	0	44	-1	–	–
CC(C)(C)c1ccc(NC(=O)N2CCC3(CC2)CC(c2cccc(Cl)c2)=NO3)cc1 [Compound 333, N-(4-tert-butylphenyl)-3-(3-chlorophenyl)-1-oxa-2,8-diazaspiro[4.5]dec-2-ene-8-carboxamide]	29	8	101	9	–	–
CSc1ccccc1NC(=O)N1CCC2(CC1)CC(c1ccc(C(C)(C)C)cc1)=NO2 [Compound 56, 3-(4-tert-butylphenyl)-1-oxa-2,8-diazaspiro[4.5]dec-2-ene-8-carboxylic acid-(2-methylsulphanylphenyl)amide]	16.4	-0.22	47.3	-0.04	–	–
CC(C)(C)c1ccc(NC(=O)N2CCC3(CC(c4ccccc4)=NO3)C2)cc1 (stereo not drawn) [Compound 371, N-(4-tert-butylphenyl)-3-phenyl-1-oxa-2,7-diazaspiro[4.4]non-2-ene-7-carboxamide]	12	1	99	35	–	–
CC(C)(C)c1ccc(NC(=O)N2CCC3(CC2)CC(c2ccccc2)=NO3)cc1 [Compound 141, 3-phenyl-1-oxa-2,8-diazaspiro[4.5]dec-2-ene-8-carboxylic acid-(4-tert-butylphenyl)amide]	20.4	-0.3	98.5	0.42	78	–
CC(C)(C)c1ccc(NC(=O)N2CCC3(CC2)CC(c2ccccc2F)=NO3)cc1 [Compound 352, N-(4-tert-butylphenyl)-3-(2-fluorophenyl)-1-oxa-2,8-diazaspiro[4.5]dec-2-ene-8-carboxamide]	-3	2	95	7	–	–
CC(C)(C)c1ccc(/C=C/C(=O)N2CCC3(CC2)CC(c2cccc(F)c2)=NO3)cc1 [Compound 353, (E)-3-(4-tert-butylphenyl)-1-(3-(3-fluorophenyl)-1-oxa-2,8-diazaspiro[4.5]dec-2-en-8-yl)prop-2-en-1-one]	23	0	84	0	–	–
CC(C)(C)c1ccc(/C(=C/C(=O)N2CCC3(CC2)CC(c2ccccc2F)=NO3)c2ccc(Cl)c(Cl)c2)cc1 [Compound 359, (Z)-3-(4-tert-butylphenyl)-3-(3,4-dichlorophenyl)-1-(3-(2-fluorophenyl)-1-oxa-2,8-diazaspiro[4.5]dec-2-en-8-yl)prop-2-en-1-one]	26	0	57	3	–	–
O=C(Nc1ccc(I)cc1)N1CCC2(CC1)CC(c1ccccc1)=NO2 [Compound 44, 3-phenyl-1-oxa-2,8-diazaspiro[4.5]dec-2-ene-8-carboxylic acid-(4-iodophenyl)amide]	-4.4	-0.15	85.6	-0.73	–	–
COc1cccc(C2=NOC3(CCN(C(=O)Nc4cccc(SC)c4)CC3)C2)c1 [Compound 59, 3-(3-methoxyphenyl)-1-oxa-2,8-diazaspiro[4.5]dec-2-ene-8-carboxylic acid-(3-methylsulphanylphenyl)amide]	2.09	0.01	48.6	0.51	–	–
Cc1ccc(C2=NOC3(CCN(C(=O)Nc4ccc(Cl)c(C(F)(F)F)c4)CC3)C2)cc1 [Compound 236, 3-p-tolyl-1-oxa-2,8-diazaspiro[4.5]dec-2-ene-8-carboxylic acid-(4-chloro-3-trifluoromethylphenyl)amide]	-10.3	-0.28	45.1	-0.47	–	–
O=C(Nc1ccc(Br)cc1)N1CCC2(CC1)CC(c1ccccc1)=NO2 [Compound 197, 3-phenyl-1-oxa-2,8-diazaspiro[4.5]dec-2-ene-8-carboxylic acid-(4-bromophenyl)amide]	-17.2	0.06	59.9	-0.35	–	–
CC(C)(C)c1ccc(C(/C=C/c2ccccc2)=C/C(=O)N2CCC3(CC2)CC(c2cccc(F)c2)=NO3)cc1 [Compound 358, (2E,4E)-3-(4-tert-butylphenyl)-1-(3-(3-fluorophenyl)-1-oxa-2,8-diazaspiro[4.5]dec-2-en-8-yl)-5-phenylpenta-2,4-dien-1-one]	41	0	95	0	148	1110
